Test results from patent publication US6861409B2, “Growth hormone secretagogues” (Zentaris AG, priority 2000, dated 2005).

Assays:
plasma GH concentrations = experiment: Growth hormone releasing activity in the infant rat (plasma GH by RIA); type: in vivo, Sprague Dawley rats; details: Table 1 test series; male 10-day-old rats; 300 μg/kg subcutaneously; plasma 15 min later
Description: Male 10-day-old Sprague Dawley rats, about 25 g body weight were used.
One hour before the experiments, pups were separated from their respective dams and were divided randomly into groups of eight each.
Pups were acutely challenged subcutaneously with 100 μl of solvent (DMSO, final dilution 1:300 in physiological saline), hexarelin (Tyr-Ala-His-D-Mrp-Ala-Trp-D-Phe-Lys-NH2, used as a reference drug), or new compounds (300 μg/kg) and killed by decapitation 15 min later.
Trunk blood was collected and centrifuged immediately. Plasma samples were stored at −20° C. until assayed for the determination of plasma GH concentrations.
Growth hormone concentrations in plasma were measured by RIA using materials provided by the National Institute of Diabetes, Digestive and Kidney Diseases (NIDDK) of the National Institute of Health U.S.A.
Values were expressed in terms of the NIDDK-rat-GH-RP-2 standard (potency 21 U/mg) as ng/ml of plasma.
The minimum detectable value of rat GH was about 1.0 ng/ml, and intraassay variability was about 6%.

Concentration GH = experiment: Time dependence of the oral activity in the dog (plasma GH); type: in vivo, dog (beagles); set-up: AUC (Area under the curve) of GH concentration: unit not given here; details: 1 mg/kg per os
Description: Furthermore the time dependence of the oral activity in the dog (1 mg/kg; per os) was estimated for example 1 (H-Aib-D-Trp-D-gTrp-CHO). Well-trained beagles of either sex, >10 year, 10-15 kg by weight, were used. Animals were fed normal dry food with water ad libitum and were on a 12 h-light/12 h-dark regimen with on at 7.00. The compound was administered orally to the dogs which had fasted since 16.00 of the preceding day. Blood samples were taken 20 min before administration, at administration and 15, 30, 60, 90, 120 and 180 min after administration.

CC(C)(N)C(=O)N[C@H](Cc1c[nH]c2ccccc12)C(=O)N[C@H](Cc1c[nH]c2ccccc12)NC=O [Example 1, H-Aib-D-Trp-D-gTrp-CHO]
GH (plasma GH concentrations): 158.8 ± 39.4 ng/mL | AUC (Area under the curve) of GH concentration (Concentration GH; MEAN VALUE of 6 dogs): 675.35 | Concentration GH (Concentration GH; MEAN VALUE of 6 dogs, t 0 min (at administration)): 1.79 ng/mL | Concentration GH (Concentration GH; MEAN VALUE of 6 dogs, t 15 min after administration): 5.32 ng/mL | Concentration GH (Concentration GH; MEAN VALUE of 6 dogs, t 30 min after administration): 5.5 ng/mL | Concentration GH (Concentration GH; MEAN VALUE of 6 dogs, t 60 min after administration): 3.52 ng/mL | Concentration GH (Concentration GH; MEAN VALUE of 6 dogs, t 90 min after administration): 3.59 ng/mL | Concentration GH (Concentration GH; MEAN VALUE of 6 dogs, t 120 min after administration): 3.42 ng/mL | Concentration GH (Concentration GH; MEAN VALUE of 6 dogs, t 180 min after administration): 3.04 ng/mL | Concentration GH (Concentration GH; MEAN VALUE of 6 dogs, t −20 min (before administration)): 2.07 ng/mL | AUC (Area under the curve) of GH concentration (Concentration GH; dog DAKOTA): 328.53 | Concentration GH (Concentration GH; dog DAKOTA, t 0 min (at administration)): 0.35 ng/mL | Concentration GH (Concentration GH; dog DAKOTA, t 15 min after administration): 2.11 ng/mL | Concentration GH (Concentration GH; dog DAKOTA, t 30 min after administration): 0.54 ng/mL | Concentration GH (Concentration GH; dog DAKOTA, t 60 min after administration): 0.17 ng/mL | Concentration GH (Concentration GH; dog DAKOTA, t 90 min after administration): 0.4 ng/mL | Concentration GH (Concentration GH; dog DAKOTA, t 120 min after administration): 3.58 ng/mL | Concentration GH (Concentration GH; dog DAKOTA, t 180 min after administration): 3.46 ng/mL | Concentration GH (Concentration GH; dog DAKOTA, t −20 min (before administration)): 0.48 ng/mL | AUC (Area under the curve) of GH concentration (Concentration GH; dog FORREST LEE): 888.91 | Concentration GH (Concentration GH; dog FORREST LEE, t 0 min (at administration)): 2.01 ng/mL | Concentration GH (Concentration GH; dog FORREST LEE, t 15 min after administration): 6.38 ng/mL | Concentration GH (Concentration GH; dog FORREST LEE, t 30 min after administration): 8.48 ng/mL | Concentration GH (Concentration GH; dog FORREST LEE, t 60 min after administration): 4.41 ng/mL | Concentration GH (Concentration GH; dog FORREST LEE, t 90 min after administration): 6.42 ng/mL | Concentration GH (Concentration GH; dog FORREST LEE, t 120 min after administration): 3.71 ng/mL | Concentration GH (Concentration GH; dog FORREST LEE, t 180 min after administration): 3.18 ng/mL | Concentration GH (Concentration GH; dog FORREST LEE, t −20 min (before administration)): 1.43 ng/mL | AUC (Area under the curve) of GH concentration (Concentration GH; dog JORMA): 658.38 | Concentration GH (Concentration GH; dog JORMA, t 0 min (at administration)): 2.75 ng/mL | Concentration GH (Concentration GH; dog JORMA, t 15 min after administration): 8.91 ng/mL | Concentration GH (Concentration GH; dog JORMA, t 30 min after administration): 6.85 ng/mL | Concentration GH (Concentration GH; dog JORMA, t 60 min after administration): 2.65 ng/mL | Concentration GH (Concentration GH; dog JORMA, t 90 min after administration): 2.47 ng/mL | Concentration GH (Concentration GH; dog JORMA, t 120 min after administration): 2.48 ng/mL | Concentration GH (Concentration GH; dog JORMA, t 180 min after administration): 2.82 ng/mL | Concentration GH (Concentration GH; dog JORMA, t −20 min (before administration)): 3.58 ng/mL | AUC (Area under the curve) of GH concentration (Concentration GH; dog MARKUS): 944.26 | Concentration GH (Concentration GH; dog MARKUS, t 0 min (at administration)): 2.55 ng/mL | Concentration GH (Concentration GH; dog MARKUS, t 15 min after administration): 6.11 ng/mL | Concentration GH (Concentration GH; dog MARKUS, t 30 min after administration): 6.9 ng/mL | Concentration GH (Concentration GH; dog MARKUS, t 60 min after administration): 6.51 ng/mL | Concentration GH (Concentration GH; dog MARKUS, t 90 min after administration): 5.18 ng/mL | Concentration GH (Concentration GH; dog MARKUS, t 120 min after administration): 4.54 ng/mL | Concentration GH (Concentration GH; dog MARKUS, t 180 min after administration): 4.12 ng/mL | Concentration GH (Concentration GH; dog MARKUS, t −20 min (before administration)): 2.45 ng/mL | AUC (Area under the curve) of GH concentration (Concentration GH; dog RAZ DEGAN): 510.64 | Concentration GH (Concentration GH; dog RAZ DEGAN, t 0 min (at administration)): 1.64 ng/mL | Concentration GH (Concentration GH; dog RAZ DEGAN, t 15 min after administration): 3.58 ng/mL | Concentration GH (Concentration GH; dog RAZ DEGAN, t 30 min after administration): 6.37 ng/mL | Concentration GH (Concentration GH; dog RAZ DEGAN, t 60 min after administration): 3.02 ng/mL | Concentration GH (Concentration GH; dog RAZ DEGAN, t 90 min after administration): 2.61 ng/mL | Concentration GH (Concentration GH; dog RAZ DEGAN, t 120 min after administration): 1.94 ng/mL | Concentration GH (Concentration GH; dog RAZ DEGAN, t 180 min after administration): 1.49 ng/mL | Concentration GH (Concentration GH; dog RAZ DEGAN, t −20 min (before administration)): 2.14 ng/mL | AUC (Area under the curve) of GH concentration (Concentration GH; dog TAYLOR): 721.34 | Concentration GH (Concentration GH; dog TAYLOR, t 0 min (at administration)): 1.41 ng/mL | Concentration GH (Concentration GH; dog TAYLOR, t 15 min after administration): 4.8 ng/mL | Concentration GH (Concentration GH; dog TAYLOR, t 30 min after administration): 3.89 ng/mL | Concentration GH (Concentration GH; dog TAYLOR, t 60 min after administration): 4.34 ng/mL | Concentration GH (Concentration GH; dog TAYLOR, t 90 min after administration): 4.43 ng/mL | Concentration GH (Concentration GH; dog TAYLOR, t 120 min after administration): 4.28 ng/mL | Concentration GH (Concentration GH; dog TAYLOR, t 180 min after administration): 3.18 ng/mL | Concentration GH (Concentration GH; dog TAYLOR, t −20 min (before administration)): 2.32 ng/mL
